Values of other authors, collected in US20070292523A1, “Dihydropyrimidine Formulations” (priority 2004, published 2007).

What was measured:
cytochrome P450 = settings: nimodipine with cimetidine (Drugs Aging, 1995, 6, 229-42)
[1] = test system: presystemic oxidative metabolism of nimodipine; settings: nimodipine and valproic acid administered in combination (Drugs Aging, 1995, 6, 229-42)

SMILES: CN/C(=N/CCSCc1nc[nH]c1C)NC#N [cimetidine]
- bioavailability of nimodipine (cytochrome P450): approximate doubling of the bioavailability of nimodipine

SMILES: COCCOC(=O)C1=C(C)NC(C)=C(C(=O)OC(C)C)C1c1cccc([N+](=O)[O-])c1 (stereo not drawn) [nimodipine, Nimodipine]
- solubility in water: practically insoluble in water

SMILES: CCCC(CCC)C(=O)O [valproic acid]
- plasma concentrations of nimodipine [1]: increased plasma concentrations of nimodipine
